{
  "source": "paper PMC7708426",
  "about": "“Identification of potential TNF-α inhibitors: from in silico to in vitro studies” (Scientific Reports, 2020)",
  "tested_on": "TNF-α",
  "assay": "TNF-α inhibition in LPS-activated THP-1 cells (Human TNF-α ELISA of supernatants)",
  "assay_type": "cell-based",
  "details": "PMA-differentiated THP-1 cells activated with 50 ng/mL LPS, 4 h, mean ± SEM of triplicate",
  "protocol": "THP-1 cells (Human monocytic leukemia cells) were obtained from Biobank facility, ICCBS, University of Karachi, which was purchased from the ECACC (European Collection of Cell Cultures, UK). The cells were cultured in RPMI-1640, supplemented with 10% FBS (fetal bovine serum), 50 µmol/L mercaptoethanol (Merck, Damstadt, Germany), 5.5 mmol/L glucose (BioM Laboratories, Chemical Division, Malaysia), 2 mmol/L; L-glutamine (PAA Laboratories, GmbH, Pasching, Austria), 10 mmol/L HEPES (MP Biomedicals, lLLKIRCH, France) and 1 mmol/L sodium pyruvate (GIBCO, Grand Island, NY, USA). Cells were harvested and 2 × 10^5 cells/mL were then added to 24-well tissue culture plates. Differentiation of cells was performed by adding 20 ng/mL of phorbol myristate acetate (PMA) (SERVA, Heidelberg, Germany), and by incubation at 37 °C for 24 h in 5% CO2. […] The supernatants were analyzed for the level of TNF-α using Human TNF-α ELISA Kit (R&D Systems, Minneapolis, USA).\nBriefly the working concentration of 4 μg/mL in PBS from 720 μg/mL of mouse anti-human TNF-α capture antibodies were used for coating of 96 well ELISA plate. […] The reaction was stopped by adding 50 μL of stop solution (2 N H2SO4) and plate was then read at wavelength of 450 nm in ELISA reader (ELX800 NB, DIA LAB, Wr. Neudrof, Austria).",
  "data": [
    {"compound": "CC(=O)CCCCn1c(=O)c2c(ncn2C)n(C)c1=O", "note": "[Pentoxifylline]", "values": [
      {"measurement": "IC50", "result": "341 ± 7.54", "unit": "µM"}
    ]}
  ]
}
